Measured values from patent US8815927B2, “Bivalent diazo bicyclic Smac mimetics and the uses thereof” (The Regents of the University of Michigan, priority 2009, dated 2014).

B1: mature Smac protein: second mitochondria-derived activator of caspases, mature polypeptide (protein, UniProt Q9NR28 22-239, looked up)
Diablo IAP-binding …: LCVPVVANFKKRCFSELIRPWHKTVTIGFGVTLCAVPIAQKSEPHSLSSEALMRRAVSLVTDSTSTFLSQTTYALIEAITEYTKAVYTLTSLYRQYTSLLGKMNSEEEDEVWQVIIGARAEMTSKHQEYLKLETTWMTAVGLSEMAAEAAYQTGADQASITARNHIQLVKLQVEEVHQLSRKAETKLAEAQIEELRQKTQEEGEERAESEQEAYLRED

Assays:
cIAP1 BIR3 Protein = cIAP1 BIR3 Protein (Homo sapiens (Human), UniProt Q13490); assay: Fluorescence polarization-based competitive binding assay, cIAP-1 BIR3; conditions: 10 nM cIAP-1 BIR3 protein, 2 nM SM5F tracer
cIAP1 BIR3 Protein, sequence (Q13490 253-363): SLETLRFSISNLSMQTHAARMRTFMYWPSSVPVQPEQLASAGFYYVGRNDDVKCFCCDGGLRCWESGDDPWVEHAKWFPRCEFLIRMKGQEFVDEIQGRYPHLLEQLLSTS
Procedure: (§1) An in vitro fluorescence polarization (FP) based binding assay was used to test the binding ability of the compounds of the present invention to certain IAP proteins (Nikolovska-Coleska et al., Anal. Biochem. 332:261-73 (2004)).
(§2) Human cIAP-1 BIR3-only (residues 253-363) and cIAP2 BIR3-only (residues 238-349) were cloned into pHis-TEV vector, produced and purified using the same method as for the XIAP BIR3 protein.
(§3) In competitive binding experiments, 10 nM of cIAP-1 BIR3 protein and 2 nM of SM5F tracer were used. […] In competitive binding experiments, 25 nM of cIAP-2 BIR3 protein and 2 nM of SM5F tracer were used.
(§4) For each competitive binding experiment, polarization values were measured after 2-3 hours incubation using an Ultra plate reader. The IC50 value, the inhibitor concentration at which 50% of bound tracer was displaced, was determined from the plot using nonlinear least-squares analysis. Curve fitting was performed using the PRISM software (GraphPad Software, Inc., San Diego, Calif.). Ki value for each compound was calculated based upon the IC50 value using a previously reported algorithm and its associated computer program (Nikolovska-Coleska et al., Anal. Biochem. 332:261-73 (2004)).

[1] = tested on: MDA-MB-231 human breast cancer cell line; assay: Cancer cell growth inhibition, WST-8; assay type: cell-based; conditions: MDA-MB-231, 96 h, 4 days
Procedure: (§5) The effect of the compounds of the present invention on the growth of various cancer cell lines was tested. Cells were seeded in 96-well flat bottom cell culture plates at a density of 3000 cells/well with a tested compound and incubated at 37° C. in an atmosphere of 95% air and 5% CO2 for 4 days. The rate of cell growth inhibition after treatment with different concentrations of the compound was determined using a WST-8 kit (2-(2-methoxy-4-nitrophenyl)-3-(4-nitrophenyl)-5-(2,4 disulfophenyl)-2H-tetrazolium monosodium salt; Dojindo Molecular Technologies, Inc., Gaithersburg, Md.). WST-8 was added at a final concentration of 10% to each well, and then the plates were incubated at 37° C. for 2-3 hrs. The absorbance of the samples was measured at 450 nm using a ULTRA Tecan Reader (Molecular Device). The concentration of the tested compound that inhibited cell growth by 50% (IC50) was calculated by comparing absorbance in untreated cells and the cells treated with the tested compound.

[2] = tested on: SK-OV-3 ovarian cancer cell line; assay: Cancer cell growth inhibition, WST-8; assay type: cell-based; conditions: Homo sapiens, SK-OV-3, 96 h, 4 days
Procedure: as §5

[3] = molecular target: XIAP Linker-BIR2-BIR3 Protein (Homo sapiens (Human), UniProt P98170); assay: Fluorescence polarization-based binding assay, XIAP Linker-BIR2-BIR3; conditions: 3 nM XIAP protein (residues 120-356), 1 nM Smac2-F
XIAP Linker-BIR2-BIR3 Protein, sequence (P98170 120-356): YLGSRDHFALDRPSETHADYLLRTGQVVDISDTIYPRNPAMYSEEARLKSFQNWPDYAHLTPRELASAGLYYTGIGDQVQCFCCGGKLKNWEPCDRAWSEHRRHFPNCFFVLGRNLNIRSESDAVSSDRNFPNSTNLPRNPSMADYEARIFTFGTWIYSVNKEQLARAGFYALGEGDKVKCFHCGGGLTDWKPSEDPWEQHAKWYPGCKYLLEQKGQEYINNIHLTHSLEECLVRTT
Excerpt: An in vitro fluorescence polarization (FP) based binding assay was used to test the binding ability of the compounds of the present invention to XIAP linker-BIR2-BIR3 protein (Nikolovska-Coleska et al., Anal. Biochem. 374:87-98 (2008)).
For this assay a bivalent Smac peptido-mimetic labeled with a fluorescence tag (FAM), termed Smac2-F, was employed. […] The recombinant XIAP Linker-BIR2-BIR3 protein of human XIAP (residues 120-356) fused to His-tag was stable and soluble, and was used for the FP-based binding assay.
For the competitive binding experiments, a tested compound was incubated with 3 nM of XIAP protein (residues 120-356) and 1 nM of Smac2-F in the assay buffer (100 mM potassium phosphate, pH 7.5; 100 μg/ml bovine gamma globulin; 0.02% sodium azide) in black, round-bottom plates. For each experiment, the controls include XIAP and Smac2-F peptide (equivalent to 0% inhibition), and Smac-2F only (equal to 100% of inhibition). The polarization values are measured after 2 hours incubation, using the Ultra plate reader. The IC50 value, the inhibitor concentration at which 50% of bound tracer was displaced, is determined from the plot using nonlinear least-squares analysis. Curve fitting is performed using GraphPad Prism® software.

cIAP2 BIR3 Protein = cIAP2 BIR3 Protein (Homo sapiens (Human), UniProt Q13489); assay: Fluorescence polarization-based competitive binding assay, cIAP-2 BIR3; conditions: 25 nM cIAP-2 BIR3 protein, 2 nM SM5F tracer
cIAP2 BIR3 Protein, sequence (Q13489 238-349): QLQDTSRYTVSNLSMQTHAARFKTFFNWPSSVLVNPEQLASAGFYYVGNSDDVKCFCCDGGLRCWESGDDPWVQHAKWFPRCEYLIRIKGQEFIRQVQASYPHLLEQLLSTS
Procedure: as §1, §2, §3, §4

[4] = tested on: breast cancer MDA-MB-231 cell line; assay: Induction of cell death, trypan blue exclusion assay; assay type: cell-based, human; conditions: MDA-MB-231, 48 hours, FIG. 1
Procedure: (§6) The ability of SM-1258 and SM-1267 to induce cell death was tested in the breast cancer MDA-MB-231 (FIG. 1) and ovarian cancer SK-OV-3 (FIG. 2) cell lines. Cells were treated with SM-1258 and SM-1267 for 48 hours and cell viability was determined using the trypan blue exclusion assay.

[5] = tested on: ovarian cancer SK-OV-3 cell line; assay: as above; assay type: cell-based, human; conditions: SK-OV-3, 48 hours, FIG. 2
Procedure: as §6

XIAP BIR3 = XIAP BIR3 (Homo sapiens (Human), UniProt P98170); conditions: cited from earlier work
XIAP BIR3, sequence (P98170 241-356): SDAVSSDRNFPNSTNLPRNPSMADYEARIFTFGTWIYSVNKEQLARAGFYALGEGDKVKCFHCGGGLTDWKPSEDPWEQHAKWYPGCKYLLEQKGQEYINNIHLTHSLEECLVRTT

Row | Molecule | IC50 (cIAP1 BIR3 Protein) [nM] | IC50 [1] [nM] | IC50 [2] [nM] | IC50 [3] [nM] | IC50 (cIAP2 BIR3 Protein) [nM] | induction of cell death [4] | induction of cell death [5] | Kd (XIAP BIR3) [nM]
1 | CN[C@@H](C)C(=O)N[C@H]1CN(C(=O)CCCCCCCCCCC(=O)N2CC[C@H]3CC[C@@H](c4nc5cccc(-c6ccccc6)c5[nH]4)N3C(=O)[C@@H](NC(=O)[C@H](C)NC)C2)CC[C@H]2CC[C@@H](c3nc4c(-c5ccccc5)cccc4[nH]3)N2C1=O [SM-1258] | < 50 | < 10 | < 20 | < 10 |  |  |  | 
2 | CN[C@@H](C)C(=O)N[C@H]1CN(C(=O)CCCCOCCCCC(=O)N2CC[C@H]3CC[C@@H](c4nc5cccc(-c6ccccc6)c5[nH]4)N3C(=O)[C@@H](NC(=O)[C@H](C)NC)C2)CC[C@H]2CC[C@@H](c3nc4c(-c5ccccc5)cccc4[nH]3)N2C1=O [SM-1259] | < 10 | < 10 |  | < 10 | < 20 |  |  | 
3 | CN[C@@H](C)C(=O)N[C@H]1CN(C(=O)CCCCC(=O)N2CC[C@H]3CC[C@@H](c4nc5cccc(-c6ccccc6)c5[nH]4)N3C(=O)[C@@H](NC(=O)[C@H](C)NC)C2)CC[C@H]2CC[C@@H](c3nc4c(-c5ccccc5)cccc4[nH]3)N2C1=O [SM-1265] | < 10 | < 50 |  | < 50 | < 10 |  |  | 
4 | CN[C@@H](C)C(=O)N[C@H]1CN(C(=O)CCCCCCC(=O)N2CC[C@H]3CC[C@@H](c4nc5cccc(-c6ccccc6)c5[nH]4)N3C(=O)[C@@H](NC(=O)[C@H](C)NC)C2)CC[C@H]2CC[C@@H](c3nc4c(-c5ccccc5)cccc4[nH]3)N2C1=O [SM-1266] | < 10 | < 10 |  | < 10 | < 20 |  |  | 
5 | CN[C@@H](C)C(=O)N[C@H]1CN(C(=O)CCCCCCCCC(=O)N2CC[C@H]3CC[C@@H](c4nc5cccc(-c6ccccc6)c5[nH]4)N3C(=O)[C@@H](NC(=O)[C@H](C)NC)C2)CC[C@H]2CC[C@@H](c3nc4c(-c5ccccc5)cccc4[nH]3)N2C1=O [SM-1267] | < 10 | < 10 |  | < 10 | < 50 | induced cell death | induced cell death | 
6 | B1 |  |  |  |  |  |  |  | 420
